Source: patent US20030220267A1, “Borinic acid protease inhibitors” (priority 2001, published 2003)
Read-outs that look alike come from different tables or passages of the source.

Tests used:
chymotrypsin = chymotrypsin (Bos taurus, UniProt P00766); conditions: pH 7.5; cited from earlier work
[1] = From the text: Furthermore, we attempted to separate the crude product on HPLC using a C18 reverse phase column and water/acetonitrile as the solvent. […] Using trifluoroacetic acid as part of the solvent mixture will acidify the media and might prevent decomposition.
HIV-1 protease = target: T1, HIV-1 protease (Human immunodeficiency virus type 1 group M subtype B, UniProt P04585); test: HIV-1 protease inhibition; format: biochemical, Human immunodeficiency virus 1; conditions: models such as those described by Pivazyan et al., Biochem. Pharma, 2000, 60, 927
T1 construct: Teach monomer is formed by 99 residues organized in β strands
From the text: The ability of a compound of the invention to act as an inhibitor of HIV-1 protease may be determined using pharmacological models which are well known to the art, such as tnose described by A. D. Pivazyan et al., Biochem. Pharma, 2000, 60, 927.

Row | Molecule | Ki (chymotrypsin) | stability under HPLC conditions ([1]; C18 reverse phase column, water/acetonitrile, gradient separation, crude product) | stability in buffer solution ([1]; acidic and neutral media) | stability in buffer solution ([1]; basic conditions) | inhibition of HIV-1 protease (HIV-1 protease)
1 | CC(=O)N[C@@H](Cc1ccccc1)B(O)O | 2100 nM |  |  |  | 
2 | CC(=O)N[C@@H](Cc1ccccc1)B(O)CN1CCC[C@H]1C(N)=O [Compound I24, [(1R)-(1-Acetamido-2-phenylethyl)]-B-methylene-L-proline amide borinic acid] |  | unstable | stable | quickly decomposes | inhibitors of HIV-1 protease
3 | [(1R)-1-(Ac-Thr-Leu-Asn)-2-phenylethyl]-B-methylene-L-proline amide borinic acid [Compound I28b] |  |  |  |  | inhibitors of HIV-1 protease
4 | [( 1R)-1-(Ac-Ser-Leu-Asn)-2-phenylethyl]-B-methylene-L-proline amide borinic acid [Compound I28a] |  |  |  |  | inhibitors of HIV-1 protease
